The values below come from publication PMC6651170, “New HSV-1 Anti-Viral 1′-Homocarbocyclic Nucleoside Analogs with an Optically Active Substituted Bicyclo[2.2.1]Heptane Fragment as a Glycoside Moiety” (Molecules, 2019).

In brackets after ≈: the same amount, converted by molar mass. Like-named read-outs stand apart in the source and are kept apart here. Some results are limits rather than exact numbers.

Data set [1] deals with human adenovirus type 5 (AdV5). Put plainly: microbe, parasite or virus in culture. Particulars: read-out: IC50 Human Adenovirus Type 5. Type of data set: cell-based.
The subject of data set [2] is herpes simplex virus type 1 (HSV-1). The data set is described as follows: microbe, parasite or virus in culture. It is filed as cell-based. Particulars: for IC50: read-out: IC50 Herpes Simplex Virus Type 1.
In another data set the test system is Enterovirus 71. The data set is described as follows: microbe, parasite or virus in culture. Type of data set: cell-based. Particulars: read-out: IC50 Enterovirus 71.
Data set [3] can be described thus: in vitro.
The subject of the next data set is Yellow Fever Virus. Put plainly: microbe, parasite or virus in culture. Conditions: read-out: IC50 Yellow Fever Virus. Type of data set: cell-based.
A short description of data set [4]: in vitro. The source holds these as a separate data set.
A further data set relates to Chikungunya Virus. The data set is described as follows: microbe, parasite or virus in culture. It is filed as cell-based. Conditions: read-out: IC50 Chikungunya Virus.
Data set [5] in a line: in vitro. Particulars: African green monkey.
The test system of data set [6] is Influenza virus (Flu A, strain A/Puerto Rico/8/34 (H1N1)). Put plainly: microbe, parasite or virus in culture. It is filed as cell-based. Particulars: read-out: IC50 Influenza Virus.
Data set [7] is described as follows: in vitro. Particulars: dog.
A short description of data set [8]: in vitro. This is another data set of the same source.
The subject of a further data set is EpsteinBarr virus. Particulars: read-out: IC50 against EpsteinBarr virus; cited from earlier work.
The subject of a further data set is HCMV. Particulars: read-out: IC50 against HCMV; cited from earlier work.
The next data set relates to VZV. Conditions: cited from earlier work.
The subject of the next data set is herpes. Conditions: cited from earlier work.
In a further data set the test system is Molt4/C8. Conditions: cited from earlier work.
For a further data set, the system named is L1210/0. Particulars: cited from earlier work.
In data set [9] the test system is cytomegalovirus DAVIS 07/1. Conditions: read-out: EC50 against cytomegalovirus DAVIS 07/1 strain; cited from earlier work.
The next data set has as its system cytomegalovirus AD169. Particulars: read-out: EC50 against cytomegalovirus AD169 strain; cited from earlier work.
A further data set relates to VZV/TK^- strain. Particulars: read-out: EC50 against VZV/TK- strain; cited from earlier work.
The next data set deals with coxsackievirus B4. Particulars: cited from earlier work.
Data set [10] concerns cells.
Data set [11] deals with cells. This is another data set of the same source.
Data set [12] relates to cells. The source holds these as a separate data set.
[13] abbreviates: Human mastadenovirus C, Vero, 72 h.
The mark [14] stands for this setting: Human alphaherpesvirus 1, Vero, 72 h.
[15] abbreviates: CC50 (Herpes Simplex Virus Type 1).
[16] abbreviates: unidentified influenza virus, H1N1, MDCK, 48 h.

A word on the IC50: it is the concentration needed to halve the response being measured. For the compound `OC1C[C@H]2[C@H](Cn3cnc4c(N5CCOCC5)ncnc43)[C@@H]1C[C@@H]2Cl` (stereo partly drawn) [Compound 6h, (1S,4S,5S,7R)-5-Chloro-7-((6-morpholino-9H-purin-9-yl)methyl)bicyclo[2.2.1]heptan-2-ol], the concentration for half-maximal inhibition (IC50) in data set [1] (setting [13]) was greater than 600 µM; in data set [2] (setting [14]) it was 341 ± 40 µM; in the data set with Enterovirus 71 (Enterovirus A), greater than 100 µM; with Yellow Fever Virus (Yellow fever virus), greater than 100 µM; in the data set with Chikungunya Virus (Chikungunya virus) it was greater than 100 µM; in data set [6] (setting [16]), 196 ± 15 µM. Further, the CC50 in “in vitro [3]” is greater than 100 µM; in “in vitro [4]”, greater than 100 µM; in the data set “in vitro [5]” (setting [15]) it was greater than 600 µM; in “in vitro [5]” (CC50 (Human Adenovirus Type 5)), greater than 600 µM; in “in vitro [7]”, greater than 600 µM; in the data set “in vitro [8]”, greater than 100 µM.
Turning to `Oc1ccc(CCNc2ncnc3c2ncn3C[C@H]2[C@@H]3CC(O)[C@H]2C[C@@H]3Cl)cc1` (stereo partly drawn) [Compound 6i, (1S,4S,5S,7R)-5-Chloro-7-((6-((4-hydroxyphenethyl)amino)-9H-purin-9-yl)methyl)bicyclo[2.2.1]heptan-2-ol], the IC50 in data set [1] (setting [13]) is greater than 72 µM; in data set [2] (setting [14]), 155 ± 13 µM; in the data set on Enterovirus 71 (Enterovirus A), 79 µM; in the data set on Yellow Fever Virus (Yellow fever virus), greater than 100 µM; with Chikungunya Virus (Chikungunya virus), greater than 100 µM; in [6] (setting [16]), greater than 72 µM. Moreover, the CC50 in “in vitro [3]” was greater than 100 µM; in the data set “in vitro [4]”, greater than 100 µM; in “in vitro [5]” (setting [15]), 447 ± 31 µM; in the data set “in vitro [5]” (CC50 (Human Adenovirus Type 5)), 217 ± 17 µM; in the data set “in vitro [7]”, 124 ± 9 µM; in “in vitro [8]” it was greater than 100 µM.
On to `OC1C[C@H]2[C@H](Cn3cnc4c(NCCc5ccccc5)ncnc43)[C@@H]1C[C@@H]2Cl` (stereo partly drawn) [Compound 6k, (1S,4S,5S,7R)-5-Chloro-7-((6-(phenethylamino)-9H-purin-9-yl)methyl)bicyclo[2.2.1]heptan-2-ol], for which the IC50 in [1] (setting [13]) is greater than 75 µM; in data set [2] (setting [14]), 48 ± 6 µM; in the data set with Enterovirus 71 (Enterovirus A), 25 ± 5.6 µM; in the data set on Yellow Fever Virus (Yellow fever virus) it was greater than 100 µM; in the data set on Chikungunya Virus (Chikungunya virus), greater than 100 µM; in data set [6] (setting [16]), 74 ± 8 µM. Also, the CC50 was greater than 100 µM in “in vitro [3]”; greater than 100 µM in “in vitro [4]”; 185 ± 16 µM in “in vitro [5]” (setting [15]); 245 ± 18 µM in the data set “in vitro [5]” (CC50 (Human Adenovirus Type 5)); 254 ± 21 µM in “in vitro [7]”; greater than 100 µM in “in vitro [8]”.
Take `COc1ncnc2c1ncn2C[C@H]1[C@@H]2CC(O)[C@H]1C[C@@H]2Cl` (stereo partly drawn) [Compound 7a, (1S,4S,5S,7R)-5-Chloro-7-((6-methoxy-9H-purin-9-yl)methyl)bicyclo[2.2.1]heptan-2-ol]: the IC50 was greater than 972 µM in [1] (setting [13]); greater than 972 µM in data set [2] (setting [14]); greater than 100 µM in the data set on Enterovirus 71 (Enterovirus A); greater than 100 µM in the data set with Yellow Fever Virus (Yellow fever virus); greater than 100 µM with Chikungunya Virus (Chikungunya virus); 233 ± 33 µM in [6] (setting [16]). Further, the CC50 in the data set “in vitro [3]” is greater than 100 µM; in the data set “in vitro [4]” it was greater than 100 µM; in “in vitro [5]” (setting [15]), greater than 972 µM; in “in vitro [5]” (CC50 (Human Adenovirus Type 5)), greater than 972 µM; in “in vitro [7]”, greater than 972 µM; in “in vitro [8]”, greater than 100 µM.
Turning to `CCOc1ncnc2c1ncn2C[C@H]1[C@@H]2CC(O)[C@H]1C[C@@H]2Cl` (stereo partly drawn) [Compound 7b, (1S,4S,5S,7R)-5-Chloro-7-((6-ethoxy-9H-purin-9-yl)methyl)bicyclo[2.2.1]heptan-2-ol], the IC50 was greater than 929 µM in data set [1] (setting [13]); 524 ± 63 µM in data set [2] (setting [14]); greater than 100 µM in the data set on Enterovirus 71 (Enterovirus A); greater than 100 µM with Yellow Fever Virus (Yellow fever virus); greater than 100 µM in the data set with Chikungunya Virus (Chikungunya virus); greater than 929 µM in data set [6] (setting [16]). Besides, the CC50 in the data set “in vitro [3]” was greater than 100 µM; in “in vitro [4]”, greater than 100 µM; in “in vitro [5]” (setting [15]), greater than 929 µM; in “in vitro [5]” (CC50 (Human Adenovirus Type 5)) it was greater than 929 µM; in the data set “in vitro [7]” it was greater than 929 µM; in the data set “in vitro [8]”, greater than 100 µM.
On to `Nc1ncnc2c1ncn2/C=C1/C[C@H]1CO` [III], for which the values for the IC50 in the data set with EpsteinBarr virus and with HCMV were 0.2 µM and 1 to 2.1 µM, respectively.
`O=c1[nH]c(=O)n(CC2(CO)CC2CO)cc1C=CBr` (stereo not shown) [II]: the “anti-VZV activity, IC50” value in the data set on VZV is 0.027 µg/mL.
On to `Nc1nc2c(ncn2/C=C2/C[C@H]2CO)c(=O)[nH]1` [IV], for which the IC50 is 0.3 µM with EpsteinBarr virus and 0.04 to 2.1 µM with HCMV.
For the compound `Nc1nc2c(ncn2CC2(CO)CC2CO)c(=O)[nH]1` (stereo not shown) [I], in the data set on herpes, the “antiherpetic activity in words” value is listed as “extremely potent antiherpetic activity”.
Turning to `Nc1nc(Cl)c2nc[nH]c2n1` [V (6-Cl-2-amino-purine)], the “IC50 Molt4/C8, cytostatic activity” value in the data set with Molt4/C8 is 13.2 µg/mL (≈ 77.8 µM). Further, the “IC50 L1210/0, cytostatic activity” value with L1210/0 is given as 16.2 µg/mL (≈ 95.5 µM).
For `Nc1nc(Cl)c2nc[nH]c2n1` [VIII (6-Cl-2-aminopurine)], the EC50 in [9] is 0.39 µM; in the data set on cytomegalovirus AD169, 0.44 µM; in the data set with VZV/TK^- strain, 2.1 µM.
Take `OCC(Cc1ccccc1)Nc1ncnc2c1ncn2C1CC2C(Cl)CC1C2CO` (stereo not shown) [Xc]: the “EC50 against coxsackievirus B4” value in the data set on coxsackievirus B4 is listed as 0.6 µg/mL (≈ 1.4 µM).
For the compound `Nc1nc(O)c2ncn(COC(CO)CO)c2n1` [ganciclovir], the EC50 was 0.4 µM in data set [9] and 0.25 µM with cytomegalovirus AD169.
As to “(1S,4S,5S,7R)-5-Chloro-7-((6-((4-hydroxyphenethyl)amino)-9H-purin-9-yl)methyl)bicyclo[2.2.1]heptan-2-ol [Compound 6j]”, the IC50 in data set [1] was greater than 70 µM; in data set [2] it was 15 ± 2 µM; in the data set on Enterovirus 71, 42 ± 3.2 µM; in the data set on Yellow Fever Virus, greater than 100 µM; in the data set on Chikungunya Virus, greater than 100 µM; in data set [6], greater than 234 µM. In addition, the “activity against HSV-1 in words” value in data set [2] is recorded as “active against herpes”. Also, the CC50 in the data set on cells [10] is greater than 100 µM; in the data set with MDCK cells, 467 ± 28 µM; with cells [11] it was greater than 100 µM; in the data set on cells [12], greater than 100 µM.
